Test results taken from patent publication US9587225B2, “Low-molecular-compound for improving production, maintenance and proliferation of pluripotent stem cells, composition comprising the same, and culture method” (KOREA RESEARCH INSTITUTE OF BIOSCIENCE AND BIOTECHNOLOGY, priority 2012, dated 2017).

System: Mouse embryonic fibroblasts (OG2-MEF; hemizygous for the Oct4-GFP transgene)
Assay: Reprogramming of mouse embryonic fibroblasts, Oct4-GFP colony count
Assay type: cell-based
Conditions: OG2-MEF transfected with OSKM, after 15 days, compared to control group
Method: FIG. 1 is a process of screening mouse cell reprogramming factors using analog library screening of novel trans-3-indoleacrylic acid-based compounds. In order to screen low-molecular-weight compounds that promote the production of reprogrammed stem cells, mouse embryonic stem cells (OG2-MEF; hemizygous for the Oct4-GFP transgene) were transduced with reprogramming viruses (Oct4, Sox2, Klf4, and c-Myc). After 5 days, the cells were seeded on gelatin-coated plates and then cultured in mouse embryonic stem cell culture media containing each of low-molecular-weight compounds until colonies having a morphology similar to that of mouse embryonic stem cells were formed. After 15 days, the number of colonies expressing endogenous Oct4 GFP fluorescence was measured, and compounds that increased the efficiency of reprogramming compared to that of a control group were selected. […] Oct4 (O), Sox2 (S), Klf4 (K), and cMyc (M). FIG. 1B is a graph showing the increase in efficiency of reprogramming by RSC-133 and ID-558 among screened compounds. The values shown on the graph are mean values. The data are expressed as mean±SD (n=3).
The OSKM reprogramming factor virus was produced according to the method of Example 3. […] At 15 days after the transfection, the number of either colonies showing AP activity or colonies expressing endogenous Oct4 GFP fluorescence was measured to determine the efficiency of reprogramming.
To discover low-molecular-weight compounds that are involved in the reprogramming process, analog library screening of novel trans-3-indoleacrylic acid-based compounds was performed in mouse cells. Mouse embryonic fibroblasts (OG2-MEF: hemizygous for the Oct4-GFP transgene) were transfected with reprogramming viruses of Oct4, Sox2, Klf4 and c-Myc (OSKM), and after 5 days, the cells were seeded on gelatin-coated 12-well plates and incubated with mouse embryonic stem cell culture medium containing each of low-molecular-weight compounds until colonies having a morphology similar to that mouse stem cells were formed so that endogenous Oct4 GFP fluorescence was expressed (FIG. 1A). […]

CN(C)C(=O)c1ccc(O)c(NC(=O)C=Cc2c[nH]c3ccccc23)c1 [ID-558, 3-[3-(1H-indol-3-yl)-acrylamido]-4-hydroxy-N,N-dimethylbenzamide]
efficiency of reprogramming (number of colonies expressing endogenous Oct4 GFP fluorescence): showed the effect of increasing the efficiency of reprogramming
